Experiments:
[1] = test system: E. coli (strain ATCC 4157); assay: Nutrient broth study of LAE materials (aerobic plate count of E. coli culture); type: cell-based; conditions: 0.5 g in 50 mL E. coli broth culture; for Aerobe Count Trial 1 CFU/g / Aerobe Count Trial 1 Log CFU/g / Aerobe Count Trial 1 Mean Log CFU/g / Aerobe Count Trial 2 CFU/g / Aerobe Count Trial 2 Log CFU/g / Aerobe Count Trial 2 Mean Log CFU/g: 45° C.; for growth of bacteria: over the 48 hour time period
Experimental: A culture of Difco nutrient broth (available from Weber Scientific, Hamilton, N.J., United States of America) and E. coli (strain ATCC® 4157™ KWIK STIK™, available from MicroBioLogics, Inc., St. Cloud, Minn., United States of America) was prepared by adding 1 tube of the E. coli to 400 mL of broth medium and incubating overnight at 37° C. Particularly, sample 1 was the positive control, sample 2 contained 0.5 g LAE HCl, sample 3 contained 0.5 g LAE monolaurate, and Sample 4 was the negative control.
Samples 1-4 were incubated at 45° C. and the number of E. coli counts was determined by plating about 1.0 mL of each sample onto aerobic plate count 3M Petrifilm™ plates (available from 3M Microbiology Products, St. Paul, Minn., United States of America) at 0, 24, and 48 hour time points. The experiments were conducted in duplicate.

[2] = test system: E. coli counts / microbial contamination in beef purge; assay: Beef purge study of LAE materials (aerobic plate count); type: cell-based; conditions: 0.5 g in 10 mL beef purge
Experimental: About 30 mL of purge was isolated from two beef tenderloin packages and transferred to three test tubes (10 mL/tube). As set forth in Table 5 below, 0.5 g LAE HCl was added to the purge in sample 5 and 0.5 g LAE monolaurate was added to the purge in sample 6. Sample 7 was the positive control and contained no LAE derivative.
The samples were mixed using a vortex mixer and E. coli counts were determined by plating about 1.0 mL on aerobic plate count 3M Petrifilm™ plates for time 0 readings. The test tubes were then stored in a refrigerator (4° C.) and E. coli counts were determined by plating about 1.0 mL on aerobic plate count 3M Petrifilm™ at 24 and 48 hours. As set forth in Table 6, below, both LAE HCl and LAE Monolaurate eliminated over 99% of the microbial contamination at the 24 and 48 hour time points.

## CCCCCCCCCCCC(=O)N[C@@H](CCCNC(=N)N)C(=O)OCC.CCCCCCCCCCCC(=O)O [LAE monolaurate, ethyl n-lauroyl-L-arginate laurate complex]
[1]; 0 hrs
  Aerobe Count Trial 1 CFU/g: 1 CFU/g
  Aerobe Count Trial 1 Log CFU/g: 0.00 Log CFU/g
  Aerobe Count Trial 1 Mean Log CFU/g: 0 Log CFU/g
  Aerobe Count Trial 2 CFU/g: 1 CFU/g
  Aerobe Count Trial 2 Log CFU/g: 0.00 Log CFU/g
  Aerobe Count Trial 2 Mean Log CFU/g: 0 Log CFU/g
[1]; 24 hrs
  Aerobe Count Trial 1 CFU/g: 1 CFU/g
  Aerobe Count Trial 1 Log CFU/g: 0.00 Log CFU/g
  Aerobe Count Trial 1 Mean Log CFU/g: 0 Log CFU/g
  Aerobe Count Trial 2 CFU/g: 1 CFU/g
  Aerobe Count Trial 2 Log CFU/g: 0.00 Log CFU/g
  Aerobe Count Trial 2 Mean Log CFU/g: 0 Log CFU/g
[1]; 48 hrs
  Aerobe Count Trial 1 CFU/g: 1 CFU/g
  Aerobe Count Trial 1 Log CFU/g: 0.00 Log CFU/g
  Aerobe Count Trial 1 Mean Log CFU/g: 0 Log CFU/g
  Aerobe Count Trial 2 CFU/g: 1 CFU/g
  Aerobe Count Trial 2 Log CFU/g: 0.00 Log CFU/g
  Aerobe Count Trial 2 Mean Log CFU/g: 0 Log CFU/g
[1]
  growth of bacteria: no growth of bacteria
[2]; 0 hrs
  % Reduction: 8.798%
  Avg. CFU/g: 3.890E+04 CFU/g
  Log CFU/g Mean: 4.59 Log CFU/g
[2]; 24 hrs at 4° C.
  % Reduction: 90.880%
  Avg. CFU/g: 8.913E+04 CFU/g
  Log CFU/g Mean: 4.95 Log CFU/g
[2]; 48 hrs at 4° C.
  % Reduction: 99.960%
  Avg. CFU/g: 2.818E+03 CFU/g
  Log CFU/g Mean: 3.45 Log CFU/g

## CCCCCCCCCCCC(=O)N[C@@H](CCCN=C(N)N)C(=O)OCC.Cl [LAE HCl, ethyl n-lauroyl-L-arginate hydrochloride salt]
[1]; 0 hrs
  Aerobe Count Trial 1 CFU/g: 1 CFU/g
  Aerobe Count Trial 1 Log CFU/g: 0.00 Log CFU/g
  Aerobe Count Trial 1 Mean Log CFU/g: 0 Log CFU/g
  Aerobe Count Trial 2 CFU/g: 1 CFU/g
  Aerobe Count Trial 2 Log CFU/g: 0.00 Log CFU/g
  Aerobe Count Trial 2 Mean Log CFU/g: 0 Log CFU/g
[1]; 24 hrs
  Aerobe Count Trial 1 CFU/g: 1 CFU/g
  Aerobe Count Trial 1 Log CFU/g: 0.00 Log CFU/g
  Aerobe Count Trial 1 Mean Log CFU/g: 0 Log CFU/g
  Aerobe Count Trial 2 CFU/g: 1 CFU/g
  Aerobe Count Trial 2 Log CFU/g: 0.00 Log CFU/g
  Aerobe Count Trial 2 Mean Log CFU/g: 0 Log CFU/g
[1]; 48 hrs
  Aerobe Count Trial 1 CFU/g: 1 CFU/g
  Aerobe Count Trial 1 Log CFU/g: 0.00 Log CFU/g
  Aerobe Count Trial 1 Mean Log CFU/g: 0 Log CFU/g
  Aerobe Count Trial 2 CFU/g: 1 CFU/g
  Aerobe Count Trial 2 Log CFU/g: 0.00 Log CFU/g
  Aerobe Count Trial 2 Mean Log CFU/g: 0 Log CFU/g
[1]
  growth of bacteria: no growth of bacteria
[2]; 0 hrs
  % Reduction: 99.766%
  Avg. CFU/g: <1.000E+02 CFU/g
  Log CFU/g Mean: <2.00 Log CFU/g
[2]; 24 hrs at 4° C.
  % Reduction: 99.990%
  Avg. CFU/g: <1.000E+02 CFU/g
  Log CFU/g Mean: <2.00 Log CFU/g
[2]; 48 hrs at 4° C.
  % Reduction: 99.999%
  Avg. CFU/g: <1.000E+02 CFU/g
  Log CFU/g Mean: <2.00 Log CFU/g

From patent US20120087968A1, “Antimicrobial Packaging Material and Methods of Making and Using the Same” (CRYOVAC, INC., priority 2010, published 2012)
